Assay results reported in patent US20160280699A1, “SUBSTITUTED PHENYLALANINE DERIVATIVES” (BAYER PHARMA AKTIENGESELLSCHAFT, priority 2013, published 2016).
Counter-ions that a name gives are not always drawn.

Legend:
human factor XIa = target: T1, human factor XIa (Homo sapiens, UniProt P03951); experiment: Measurement of FXIa inhibition (fluorogenic peptide substrate Boc-Glu(OBzl)-Ala-Arg-AMC); assay type: biochemical; conditions: factor XIa from Kordia, 15 min preincubation, 30 min at 22° C., fluorescence
T1 construct: purchased Kordia
T1 sequence (P03951 388-625 limits assumed): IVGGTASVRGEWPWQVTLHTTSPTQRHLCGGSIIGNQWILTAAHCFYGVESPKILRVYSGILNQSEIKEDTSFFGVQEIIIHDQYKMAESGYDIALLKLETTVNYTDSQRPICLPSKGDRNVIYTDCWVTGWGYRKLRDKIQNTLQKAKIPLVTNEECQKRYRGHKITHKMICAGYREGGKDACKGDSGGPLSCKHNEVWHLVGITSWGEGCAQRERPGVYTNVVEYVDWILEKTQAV
T1 sequence (P03951 19-387 partner limits assumed): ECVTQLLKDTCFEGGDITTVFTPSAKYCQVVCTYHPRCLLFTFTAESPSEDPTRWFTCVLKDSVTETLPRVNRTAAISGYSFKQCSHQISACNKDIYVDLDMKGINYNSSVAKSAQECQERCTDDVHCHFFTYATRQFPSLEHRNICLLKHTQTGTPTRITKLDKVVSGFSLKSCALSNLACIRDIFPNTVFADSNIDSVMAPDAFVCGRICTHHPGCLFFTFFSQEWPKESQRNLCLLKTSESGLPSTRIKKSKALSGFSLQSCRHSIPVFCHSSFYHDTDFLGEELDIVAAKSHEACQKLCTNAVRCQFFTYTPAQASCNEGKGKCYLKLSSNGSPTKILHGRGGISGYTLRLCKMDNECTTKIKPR
Experimental: The factor XIa inhibition of the substances according to the invention is determined using a biochemical test system which utilizes the reaction of a peptidic factor XIa substrate to determine the enzymatic activity of human factor XIa. Here, factor XIa cleaves from the peptic factor XIa substrate the C-terminal aminomethylcoumarin (AMC), the fluorescence of which is measured. The determinations are carried out in microtitre plates.
Test substances are dissolved in dimethyl sulphoxide and serially diluted in dimethyl sulphoxide (3000 μM to 0.0078 μM; resulting final concentrations in the test: 50 μM to 0.00013 μM). In each case 1 μl of the diluted substance solutions is placed into the wells of white microtitre plates from Greiner (384 wells). Subsequently, the following are added successively: 20 μl of assay buffer (50 mmol/l Tris buffer pH 7.4; 100 mmol/l sodium chloride; 5 mmol/l calcium chloride; 0.1% bovine serum albumin) and 20 μl of factor XIa from Kordia (0.45 nM in assay buffer). After 15 min of incubation, the enzyme reaction is started by addition of 20 μl of the factor XIa substrate Boc-Glu(OBzl)-Ala-Arg-AMC dissolved in assay buffer (10 μM in assay buffer) from Bachem, the mixture is incubated at room temperature (22° C.) for 30 min and fluorescence is then measured (excitation: 360 nm, emission: 460 nm). The measured emissions of the test batches with test substance are compared to those of control batches without test substance (only dimethyl sulphoxide instead of test substance in dimethyl sulphoxide), and IC50 values are calculated from the concentration/activity relationships.

human and animal plasma = experiment: Determination of anticoagulatory activity: activated partial thromboplastin time (aPTT) in plasma; assay type: biochemical; conditions: concentration of test substance which brings about a 1.5-fold extension of the aPTT, 37° C., C.K. Prest kit
Experimental: The anticoagulatory activity of the test substances is determined in vitro in human and animal plasma (for example mouse, rat, rabbit, pig and dog plasma). To this end, blood is drawn off in a mixing ratio of sodium citrate/blood of 1:9 using a 0.11 molar sodium citrate solution as receiver. Immediately after the blood has been drawn off, it is mixed thoroughly and centrifuged at about 4000 g for 15 minutes. The supernatant is pipetted off.
The activated partial thromboplastin time (aPTT) is determined in the presence of varying concentrations of test substance or the corresponding solvent using a commercial test kit (C.K. Prest from Diagnostica Stago). The test compounds are incubated with the plasma and the PTT reagent (cephalin, kaolin) at 37° C. for 3 minutes. Coagulation is then started by addition of a 25 mM aqueous calcium chloride solution, and the time when coagulation occurs is determined. The concentration of test substance which brings about a 1.5-fold extension of the aPTT is determined Activity data from this test are listed in Table B below: […]

CS(=O)(=O)c1cncc(-c2ccc(C[C@H](NC(=O)[C@H]3CC[C@H](CN)CC3)C(=O)Nc3ccc(-c4nn[nH]n4)cc3)cc2)c1 [Example 39, N-alpha-{[trans-4-(Aminomethyl)cyclohexyl]carbonyl}-4-[5-(methylsulphonyl)pyridin-3-yl]-N-[4-(2H-tetrazol-5-yl)phenyl]-L-phenylalaninamide hydrochloride]
IC50 (human factor XIa): 15 nM | aPTT (human and animal plasma): 0.38 µmol/L

NC[C@H]1CC[C@H](C(=O)N[C@@H](Cc2ccc(-c3cnc(N4CCCCC4)nc3O)cc2)C(=O)Nc2ccc(-c3nn[nH]n3)cc2)CC1 [Example 40, N-alpha-{[trans-4-(Aminomethyl)cyclohexyl]carbonyl}-4-[4-hydroxy-2-(piperidin-1-yl)pyrimidin-5-yl]-N-[4-(2H-tetrazol-5-yl)phenyl]-L-phenylalaninamide hydrochloride]
IC50 (human factor XIa): 2.6 nM | aPTT (human and animal plasma): 0.08 µmol/L

Cc1cc(N2CCNCC2)ncc1-c1ccc(C[C@H](NC(=O)[C@H]2CC[C@H](CN)CC2)C(=O)Nc2ccc(-c3nn[nH]n3)cc2)cc1 [Example 41, N-alpha-{[trans-4-(Aminomethyl)cyclohexyl]carbonyl}-4-[4-methyl-6-(piperazin-1-yl)pyridin-3-yl]-N-[4-(2H-tetrazol-5-yl)phenyl]-L-phenylalaninamide hydrochloride]
IC50 (human factor XIa): 3.2 nM | aPTT (human and animal plasma): 0.06 µmol/L

NC[C@H]1CC[C@H](C(=O)N[C@@H](Cc2ccc(-c3ccnc(N4CCOCC4)c3Cl)cc2)C(=O)Nc2ccc(-c3nn[nH]n3)cc2)CC1 [Example 43, N-alpha-{[trans-4-(Aminomethyl)cyclohexyl]carbonyl}-4-[3-chloro-2-(morpholin-4-yl)pyridin-4-yl]-N-[4-(2H-tetrazol-5-yl)phenyl]-L-phenylalaninamide hydrochloride]
IC50 (human factor XIa): 1.8 nM | aPTT (human and animal plasma): 0.37 µmol/L

NC[C@H]1CC[C@H](C(=O)N[C@@H](Cc2ccc(-c3ccc(N4CCOCC4)nc3)c(F)c2)C(=O)Nc2ccc(-c3nn[nH]n3)cc2)CC1 [Example 44, N-alpha-{[trans-4-(Aminomethyl)cyclohexyl]carbonyl}-3-fluoro-4-[6-(morpholin-4-yl)pyridin-3-yl]-N-[4-(2H-tetrazol-5-yl)phenyl]-L-phenylalaninamide hydrochloride]
IC50 (human factor XIa): 2 nM | aPTT (human and animal plasma): 0.22 µmol/L

CN(C)CCCOc1ccc(-c2ccc(C[C@H](NC(=O)[C@H]3CC[C@H](CN)CC3)C(=O)Nc3ccc(-c4nn[nH]n4)cc3)cc2F)cn1 [Example 45, N-alpha-{[trans-4-(Aminomethyl)cyclohexyl]carbonyl}-4-{6-[3-(dimethylamino)propoxy]pyridin-3-yl}-3-fluoro-N-[4-(2H-tetrazol-5-yl)phenyl]-L-phenylalaninamide hydrochloride]
IC50 (human factor XIa): 13 nM | aPTT (human and animal plasma): 0.35 µmol/L

NC[C@H]1CC[C@H](C(=O)N[C@@H](Cc2ccc(-c3ccnc(N4CCOCC4)c3F)cc2)C(=O)Nc2ccc(-c3nn[nH]n3)cc2)CC1 [Example 46, N-alpha-{[trans-4-(Aminomethyl)cyclohexyl]carbonyl}-4-[3-fluoro-2-(morpholin-4-yl)pyridin-4-yl]-N-[4-(2H-tetrazol-5-yl)phenyl]-L-phenylalaninamide hydrochloride]
IC50 (human factor XIa): 3.7 nM | aPTT (human and animal plasma): 0.45 µmol/L

Cc1cc(N2CCNCC2)ncc1-c1ccc(C[C@H](NC(=O)[C@H]2CC[C@H](CN)CC2)C(=O)Nc2ccc(-c3nn[nH]n3)c(F)c2)cc1 [Example 47, N-alpha-{[trans-4-(Aminomethyl)cyclohexyl]carbonyl}-N-[3-fluoro-4-(2H-tetrazol-5-yl)phenyl]-4-[4-methyl-6-(piperazin-1-yl)pyridin-3-yl]-L-phenylalaninamide hydrochloride]
IC50 (human factor XIa): 1.1 nM | aPTT (human and animal plasma): 0.08 µmol/L

Cc1cc(N2CCNCC2)ncc1-c1ccc(C[C@H](NC(=O)[C@H]2CC[C@H](CN)CC2)C(=O)Nc2ccc(-c3nnc(Cl)[nH]3)cc2)cc1 [Example 48, N-alpha-{[trans-4-(Aminomethyl)cyclohexyl]carbonyl}-N-[4-(3-chloro-4H-1,2,4-triazol-5-yl)phenyl]-4-[4-methyl-6-(piperazin-1-yl)pyridin-3-yl]-L-phenylalaninamide hydrochloride]
IC50 (human factor XIa): 3.5 nM | aPTT (human and animal plasma): 0.11 µmol/L

NC[C@H]1CC[C@H](C(=O)N[C@@H](Cc2ccc(-c3cncc(N)c3)cc2)C(=O)Nc2ccc(-c3nnn[nH]3)cc2)CC1 [Example 49, N-alpha-{[trans-4-(Aminomethyl)cyclohexyl]carbonyl}-4-(5-aminopyridin-3-yl)-N-[4-(1H-tetrazol-5-yl)phenyl]-L-phenylalaninamide hydrochloride]
IC50 (human factor XIa): 3.2 nM | aPTT (human and animal plasma): 0.14 µmol/L

NC[C@H]1CC[C@H](C(=O)N[C@@H](Cc2ccc(-c3cccnc3C(F)(F)F)cc2)C(=O)Nc2ccc(-c3nnn[nH]3)cc2)CC1 [Example 50, N-alpha-{[trans-4-(Aminomethyl)cyclohexyl]carbonyl}-N-[4-(1H-tetrazol-5-yl)phenyl]-4-[2-(trifluoromethyl)pyridin-3-yl]-L-phenylalaninamide hydrochloride]
IC50 (human factor XIa): 1.3 nM | aPTT (human and animal plasma): 0.16 µmol/L

Cc1nc(N)ccc1-c1ccc(C[C@H](NC(=O)[C@H]2CC[C@H](CN)CC2)C(=O)Nc2ccc(-c3nnn[nH]3)cc2)cc1 [Example 51, N-alpha-{[trans-4-(Aminomethyl)cyclohexyl]carbonyl}-4-(6-amino-2-methylpyridin-3-yl)-N-[4-(1H-tetrazol-5-yl)phenyl]-L-phenylalaninamide hydrochloride]
IC50 (human factor XIa): 3.7 nM | aPTT (human and animal plasma): 0.19 µmol/L

NC[C@H]1CC[C@H](C(=O)N[C@@H](Cc2ccc(-c3cncc(S(=O)(=O)NC4CCNCC4)c3)cc2)C(=O)Nc2ccc(-c3nnn[nH]3)cc2)CC1 [Example 52, N-alpha-{[trans-4-(Aminomethyl)cyclohexyl]carbonyl}-4-[5-(piperidin-4-ylsulphamoyl)pyridin-3-yl]-N-[4-(1H-tetrazol-5-yl)phenyl]-L-phenylalaninamide hydrochloride]
IC50 (human factor XIa): 6.9 nM | aPTT (human and animal plasma): 0.21 µmol/L

CN1CCN(c2cc(-c3ccc(C[C@H](NC(=O)C4CCC(CN)CC4)C(=O)Nc4ccc(-c5nnn[nH]5)cc4)cc3)ccn2)CC1 (stereo partly drawn) [Example 53, N-alpha-{[trans-4-(Aminomethyl)cyclohexyl]carbonyl}-4-[2-(4-methylpiperazin-1-yl)pyridin-4-yl]-N-[4-(1H-tetrazol-5-yl)phenyl]-L-phenylalaninamide hydrochloride]
IC50 (human factor XIa): 11 nM | aPTT (human and animal plasma): 0.21 µmol/L

CN1CCN(c2ccc(-c3ccc(C[C@H](NC(=O)C4CCC(CN)CC4)C(=O)Nc4ccc(-c5nnn[nH]5)cc4)cc3)cn2)CC1 (stereo partly drawn) [Example 54, N-alpha-{[trans-4-(Aminomethyl)cyclohexyl]carbonyl}-4-[6-(4-methylpiperazin-1-yl)pyridin-3-yl]-N-[4-(1H-tetrazol-5-yl)phenyl]-L-phenylalaninamide hydrochloride]
IC50 (human factor XIa): 7.2 nM | aPTT (human and animal plasma): 0.21 µmol/L

Cc1nc(N)ncc1-c1ccc(C[C@H](NC(=O)C2CCC(CN)CC2)C(=O)Nc2ccc(-c3nnn[nH]3)cc2)cc1 (stereo partly drawn) [Example 55, N-alpha-{[trans-4-(Aminomethyl)cyclohexyl]carbonyl}-4-(2-amino-4-methylpyrimidin-5-yl)-N-[4-(1H-tetrazol-5-yl)phenyl]-L-phenylalaninamide hydrochloride]
IC50 (human factor XIa): 3 nM | aPTT (human and animal plasma): 0.22 µmol/L
